Measured values reported in PubChem BioAssay (NCI).
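Interpolation was linear, between the two tested concentrations surrounding the appropriate level; five concentrations were tested over 48 hours in 96-well plates. TGI denotes the concentration required for complete inhibition of growth.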

What was measured:
Assay in all cases: NCI tumour cell line growth inhibition, 48 h
LXFL 529 NSCLC = tested on: LXFL 529 NSCLC
SNB-78 CNS = tested on: SNB-78 CNS
UO-31 renal = tested on: UO-31 renal
MOLT-4 leukemia = tested on: MOLT-4 leukemia
U251 CNS = tested on: U251 CNS
SNB-19 CNS = tested on: SNB-19 CNS
HOP-18 NSCLC = tested on: HOP-18 NSCLC
MALME-3M melanoma = tested on: MALME-3M melanoma
SF-539 CNS = tested on: SF-539 CNS
KM20L2 colon = tested on: KM20L2 colon
NCI-H23 lung = tested on: NCI-H23 lung
UACC-62 melanoma = tested on: UACC-62 melanoma
RXF-631 renal = tested on: RXF-631 renal
COLO 205 colon = tested on: COLO 205 colon
LOX IMVI melanoma = tested on: LOX IMVI melanoma
SR leukemia = tested on: SR leukemia
HT29 colon = tested on: HT29 colon
RPMI-8226 leukemia = tested on: RPMI-8226 leukemia
SN12C renal = tested on: SN12C renal
NCI-H460 lung = tested on: NCI-H460 lung
ACHN renal = tested on: ACHN renal
HOP-62 NSCLC = tested on: HOP-62 NSCLC
CAKI-1 renal = tested on: CAKI-1 renal
NCI-H226 lung = tested on: NCI-H226 lung
A498 renal = tested on: A498 renal
SK-MEL-2 melanoma = tested on: SK-MEL-2 melanoma
HCT-15 colon = tested on: HCT-15 colon
DMS 273 small cell lung = tested on: DMS 273 small cell lung
SK-MEL-28 melanoma = tested on: SK-MEL-28 melanoma
IGROV1 ovarian = tested on: IGROV1 ovarian
TK-10 renal = tested on: TK-10 renal
SK-OV-3 ovarian = tested on: SK-OV-3 ovarian
M14 melanoma = tested on: M14 melanoma
SW-620 colon = tested on: SW-620 colon
HCC-2998 colon = tested on: HCC-2998 colon
OVCAR-3 ovarian = tested on: OVCAR-3 ovarian
SK-MEL-5 melanoma = tested on: SK-MEL-5 melanoma
CCRF-CEM leukemia = tested on: CCRF-CEM leukemia
HCT-116 colon = tested on: HCT-116 colon
KM12 colon = tested on: KM12 colon
SF-268 CNS = tested on: SF-268 CNS
OVCAR-5 ovarian = tested on: OVCAR-5 ovarian
786-0 renal = tested on: 786-0 renal
NCI-H522 lung = tested on: NCI-H522 lung
SNB-75 CNS = tested on: SNB-75 CNS
HL-60(TB) leukemia = tested on: HL-60(TB) leukemia
M19-MEL melanoma = tested on: M19-MEL melanoma
SF-295 CNS = tested on: SF-295 CNS
HOP-92 NSCLC = tested on: HOP-92 NSCLC
EKVX NSCLC = tested on: EKVX NSCLC
OVCAR-8 ovarian = tested on: OVCAR-8 ovarian
DMS 114 small cell lung = tested on: DMS 114 small cell lung
DLD-1 colon = tested on: DLD-1 colon
RXF 393 renal = tested on: RXF 393 renal
OVCAR-4 ovarian = tested on: OVCAR-4 ovarian
A549 NSCLC = tested on: A549 NSCLC
UACC-257 melanoma = tested on: UACC-257 melanoma
K-562 leukemia = tested on: K-562 leukemia
XF 498 CNS = tested on: XF 498 CNS

Cc1ccccc1-n1c(CCl)nc2ccc(Br)cc2c1=O
TGI (LXFL 529 NSCLC): 18.5 µM | TGI (SNB-78 CNS): 52.2 µM | TGI (UO-31 renal): 28.2 µM | TGI (MOLT-4 leukemia): 73.5 µM | TGI (U251 CNS): 25.9 µM | TGI (SNB-19 CNS): 77.1 µM | TGI (HOP-18 NSCLC): 55.3 µM | TGI (MALME-3M melanoma): 32.9 µM | TGI (SF-539 CNS): 21.8 µM | TGI (KM20L2 colon): 39.9 µM | TGI (NCI-H23 lung): 25.3 µM | TGI (UACC-62 melanoma): 17.9 µM | TGI (RXF-631 renal): 42.1 µM | TGI (COLO 205 colon): 26.4 µM | TGI (LOX IMVI melanoma): 1.46 µM | TGI (SR leukemia): > 24.9 µM | TGI (HT29 colon): 16.7 µM | TGI (RPMI-8226 leukemia): 71.4 µM | TGI (SN12C renal): 16.6 µM | TGI (NCI-H460 lung): 28 µM | TGI (ACHN renal): 83.8 µM | TGI (HOP-62 NSCLC): 56 µM | TGI (CAKI-1 renal): 3.75 µM | TGI (NCI-H226 lung): 28.4 µM | TGI (A498 renal): 60.8 µM | TGI (SK-MEL-2 melanoma): 32.5 µM | TGI (HCT-15 colon): 14.4 µM | TGI (DMS 273 small cell lung): > 100 µM | TGI (SK-MEL-28 melanoma): 32.5 µM | TGI (IGROV1 ovarian): 33.1 µM | TGI (TK-10 renal): 70.1 µM | TGI (SK-OV-3 ovarian): > 100 µM | TGI (M14 melanoma): 22.8 µM | TGI (SW-620 colon): 8.95 µM | TGI (HCC-2998 colon): 30.8 µM | TGI (OVCAR-3 ovarian): 27.5 µM | TGI (SK-MEL-5 melanoma): 22.9 µM | TGI (CCRF-CEM leukemia): 4.78 µM | TGI (HCT-116 colon): 21.3 µM | TGI (KM12 colon): 26.9 µM | TGI (SF-268 CNS): 10.8 µM | TGI (OVCAR-5 ovarian): 56.3 µM | TGI (786-0 renal): 20.6 µM | TGI (NCI-H522 lung): 5.83 µM | TGI (SNB-75 CNS): 29 µM | TGI (HL-60(TB) leukemia): 17 µM | TGI (M19-MEL melanoma): 19.9 µM | TGI (SF-295 CNS): 58.4 µM | TGI (HOP-92 NSCLC): 36 µM | TGI (EKVX NSCLC): 35 µM | TGI (OVCAR-8 ovarian): 27.1 µM | TGI (DMS 114 small cell lung): 20.5 µM | TGI (DLD-1 colon): 16.6 µM | TGI (RXF 393 renal): 26.8 µM | TGI (OVCAR-4 ovarian): 31.8 µM | TGI (A549 NSCLC): 44.9 µM | TGI (UACC-257 melanoma): 32.2 µM

O=C(O)CCC1c2[nH]c3ccccc3c2CCN1Cc1ccccc1 (centres undefined)
TGI (LXFL 529 NSCLC): > 100 µM | TGI (K-562 leukemia): > 100 µM | TGI (SNB-78 CNS): > 100 µM | TGI (UO-31 renal): > 100 µM | TGI (MOLT-4 leukemia): > 100 µM | TGI (U251 CNS): > 100 µM | TGI (SNB-19 CNS): > 100 µM | TGI (HOP-18 NSCLC): > 100 µM | TGI (MALME-3M melanoma): > 100 µM | TGI (SF-539 CNS): > 100 µM | TGI (KM20L2 colon): > 100 µM | TGI (NCI-H23 lung): > 100 µM | TGI (UACC-62 melanoma): > 100 µM | TGI (RXF-631 renal): > 100 µM | TGI (COLO 205 colon): > 100 µM | TGI (LOX IMVI melanoma): > 100 µM | TGI (SR leukemia): > 100 µM | TGI (HT29 colon): > 100 µM | TGI (SN12C renal): > 100 µM | TGI (NCI-H460 lung): > 100 µM | TGI (ACHN renal): > 100 µM | TGI (CAKI-1 renal): > 100 µM | TGI (NCI-H226 lung): > 100 µM | TGI (A498 renal): > 100 µM | TGI (SK-MEL-2 melanoma): > 100 µM | TGI (HCT-15 colon): > 100 µM | TGI (DMS 273 small cell lung): > 100 µM | TGI (SK-MEL-28 melanoma): > 100 µM | TGI (IGROV1 ovarian): > 100 µM | TGI (TK-10 renal): > 100 µM | TGI (SK-OV-3 ovarian): > 100 µM | TGI (M14 melanoma): > 100 µM | TGI (SW-620 colon): > 100 µM | TGI (HCC-2998 colon): > 100 µM | TGI (OVCAR-3 ovarian): > 100 µM | TGI (SK-MEL-5 melanoma): > 100 µM | TGI (CCRF-CEM leukemia): > 100 µM | TGI (HCT-116 colon): > 100 µM | TGI (KM12 colon): > 100 µM | TGI (SF-268 CNS): > 100 µM | TGI (OVCAR-5 ovarian): > 100 µM | TGI (786-0 renal): > 100 µM | TGI (NCI-H522 lung): > 100 µM | TGI (SNB-75 CNS): > 100 µM | TGI (HL-60(TB) leukemia): > 100 µM | TGI (M19-MEL melanoma): > 100 µM | TGI (SF-295 CNS): > 100 µM | TGI (HOP-92 NSCLC): > 100 µM | TGI (EKVX NSCLC): > 100 µM | TGI (OVCAR-8 ovarian): > 100 µM | TGI (DMS 114 small cell lung): > 100 µM | TGI (DLD-1 colon): > 100 µM | TGI (OVCAR-4 ovarian): > 100 µM | TGI (A549 NSCLC): > 100 µM | TGI (UACC-257 melanoma): > 100 µM

CCCC(C(=O)OC)C1N=C(NC#N)N(Cc2ccccc2)C1=O (centres undefined)
TGI (LXFL 529 NSCLC): > 100 µM | TGI (K-562 leukemia): > 100 µM | TGI (UO-31 renal): > 100 µM | TGI (MOLT-4 leukemia): > 100 µM | TGI (U251 CNS): > 100 µM | TGI (SNB-19 CNS): > 100 µM | TGI (MALME-3M melanoma): > 100 µM | TGI (KM20L2 colon): > 100 µM | TGI (NCI-H23 lung): > 100 µM | TGI (UACC-62 melanoma): > 100 µM | TGI (COLO 205 colon): > 100 µM | TGI (LOX IMVI melanoma): > 100 µM | TGI (SR leukemia): > 100 µM | TGI (HT29 colon): > 100 µM | TGI (RPMI-8226 leukemia): > 100 µM | TGI (SN12C renal): > 100 µM | TGI (NCI-H460 lung): > 100 µM | TGI (ACHN renal): > 100 µM | TGI (HOP-62 NSCLC): > 100 µM | TGI (CAKI-1 renal): > 100 µM | TGI (SK-MEL-2 melanoma): > 100 µM | TGI (HCT-15 colon): > 100 µM | TGI (DMS 273 small cell lung): > 100 µM | TGI (SK-MEL-28 melanoma): > 100 µM | TGI (XF 498 CNS): > 100 µM | TGI (IGROV1 ovarian): > 100 µM | TGI (TK-10 renal): > 100 µM | TGI (SK-OV-3 ovarian): > 100 µM | TGI (M14 melanoma): > 100 µM | TGI (SW-620 colon): > 100 µM | TGI (HCC-2998 colon): > 100 µM | TGI (OVCAR-3 ovarian): > 100 µM | TGI (SK-MEL-5 melanoma): > 100 µM | TGI (CCRF-CEM leukemia): > 100 µM | TGI (HCT-116 colon): > 100 µM | TGI (KM12 colon): > 100 µM | TGI (SF-268 CNS): > 100 µM | TGI (OVCAR-5 ovarian): > 100 µM | TGI (786-0 renal): > 100 µM | TGI (NCI-H522 lung): > 100 µM | TGI (SNB-75 CNS): 81.1 µM | TGI (HL-60(TB) leukemia): > 100 µM | TGI (M19-MEL melanoma): > 100 µM | TGI (SF-295 CNS): > 100 µM | TGI (EKVX NSCLC): > 100 µM | TGI (OVCAR-8 ovarian): > 100 µM | TGI (DMS 114 small cell lung): > 100 µM | TGI (DLD-1 colon): > 100 µM | TGI (RXF 393 renal): > 100 µM | TGI (OVCAR-4 ovarian): > 100 µM | TGI (A549 NSCLC): > 100 µM | TGI (UACC-257 melanoma): > 100 µM
